The subject of this data set is PC-3 human prostate adenocarcinoma tumor. Nature of the data set: DCE-MRI of contrast agent kinetics in PC-3 tumors of Axitinib- or vehicle-treated mice (Example 3). The data set is classed as in vivo, NCR athymic nude mice. The note with it: contrast agent 100 μmol/kg i.v., one value per animal, trisodium salt. From the text:
The comparative test has been performed using NCR athymic nude mice implanted with PC-3 cells (a human prostate cancer line) and treated with Axitinib®, a VEGFRs inhibitor, (to modulate the tumor vascular permeability) by a protocol which timing is for instance schematized in FIG. 1. Scope of the test was to compare the image-based analysis of the albumin distribution in a human tumor model as extracted from the analysis of a time-serie of MRI images (with spatial resolution of around 110 μm) acquired with the method of the invention after injection of B22956/1 as contrast agent, and the distribution of FITC-BSA (Fluorescent isothiocyanate Bovine Serum Albumin) albumin inside and outside vessels histologically determined from fluorescent microscopy images on a scale of microns.
In particular, the trans-endothelial permeability (K^Trans) and the fractional plasma volume (fPV) were calculated from dynamic MR data by application of a bi-compartmental pharmacokinetic model, while the Initial Area Under the Curve (IAUCT) was calculated in several time windows, typically comprised between the contrast agent administration and the end of the MRI acquisition. The macromolecular penetration in tumors was, then, probed by fluorescently labelled Bovine Serum Albumin administered via tail vein after the last MRI session. Microscopic images were used to quantify the percentage of area stained by fluorescent albumin in the tumor, as a measure of the blood vessel density, using an automatic thresholding method. The albumin extravasation in the tumor extravascular space was assessed based on the fluorescence found out of the blood vessels from histological samples taken from both of tumor rim and core, for instance as schematized in FIG. 2. In particular, the albumin florescence was averaged over all pixels at a given distance from the nearest vessel and stored as a function of distance from the vessels walls, by use of an optimized procedure, for instance schematized in FIG. 3, providing both a quantification of the availability of the albumin in the extravascular space of the concerned tumor, namely the amount of the extravasated FITC-Albumin, and the decay of its concentration over the distance x from a nearest vessel, or, in other words, its actual distribution and dilution within the extracellular spaces (for instance as schematized in FIG. 4).
Human prostate adenocarcinoma cells (PC-3) were supplied by ATCC (American Type Culture Collection) and grown in Hams F-12 medium supplemented with 10% foetal bovine serum, 2 mM glutamine, 100 IU/mL penicillin and 100 μg/mL streptomycin (all from Lonza, Verviers, Belgium). […] Tumour development was followed by palpation and measured by calliper every 2-3 days until the end of the experiment. […]

The text below walks through data of patent US9952300B2, “Dynamic contrast enhanced MRI method and agents for the assessment of the macromolecular transport within pathologic tissues” (BRACCO IMAGING S.P.A., priority 2012, dated 2018).

“And” between values parts separate entries of the source, which are not always exact repeats. Identical values can stand only once.

For the molecule `C[C@H](CCC(=O)[O-])[C@H]1CC[C@H]2[C@@H]3CC[C@@H]4C[C@@H](NC(=O)CC[C@@H](C(=O)[O-])N(CCN(CC(=O)[O-])CC(=O)[O-])CCN(CC(=O)[O-])CC(=O)[O-])CC[C@]4(C)[C@H]3C[C@H](O)[C@]12C.[Gd+3].[Na+].[Na+].[Na+]` [B22956/1, Gadocoletic acid trisodium salt], the “kTrans (Transfer Constant)” value was 1.09 mL\(min × g) × 100 and 0.98 mL\(min × g) × 100 (2×) and 0.40 mL\(min × g) × 100 (2×) and 1.81 mL\(min × g) × 100 and 0.31 mL\(min × g) × 100 and 0.95 mL\(min × g) × 100 and 0.44 mL\(min × g) × 100 and 1.77 mL\(min × g) × 100 and 1.82 mL\(min × g) × 100 and 1.57 mL\(min × g) × 100 and 1.29 mL\(min × g) × 100 and 1.85 mL\(min × g) × 100 and 1.20 mL\(min × g) × 100 (tumor core); 2.45 mL\(min × g) × 100 and 1.91 mL\(min × g) × 100 (2×) and 0.83 mL\(min × g) × 100 and 2.30 mL\(min × g) × 100 and 1.06 mL\(min × g) × 100 and 1.76 mL\(min × g) × 100 and 1.33 mL\(min × g) × 100 and 3.00 mL\(min × g) × 100 and 1.68 mL\(min × g) × 100 and 2.77 mL\(min × g) × 100 and 2.15 mL\(min × g) × 100 and 2.37 mL\(min × g) × 100 and 1.17 mL\(min × g) × 100 and 3.22 mL\(min × g) × 100 and 2.24 mL\(min × g) × 100 (tumor rim).
